≈ marks a conversion by molar mass, not a printed value. Like-named read-outs stand apart in the source and are kept apart here.
Key:
[1] = test system: Candida albicans; experiment: In vitro fungicidal activity vs. Candida albicans; settings: Candida albicans
[2] = test system: B. dermatitidis; experiment: Susceptibility of clinical dimorphic fungi (MIC); format: cell-based; settings: Blastomyces dermatitidis; B. dermatitidis (n = 30); CLSI M38-A2; 50% growth reduction; MIC read at 96 h
[3] = test system: C. albicans, Fluconazole, Voriconazole, Itraconazole and/or Caspofungin resistant isolates; experiment: Susceptibility of resistant clinical isolates (MIC, broth dilution); format: cell-based; settings: Candida albicans; C. albicans resistant (n = 20): isolates resistant to Fluconazole, Itraconazole and Caspofungin; read-out: MIC90
[4] = test system: C. glabrata, Fluconazole, Voriconazole, Itraconazole and/or Caspofungin resistant isolates; experiment: as above; format: cell-based; settings: Nakaseomyces glabratus; C. glabrata resistant (n = 21): isolates resistant to Fluconazole, Itraconazole, Voriconazole and Caspofungin; read-out: MIC90
Experimental: (§1) The efficacy of compound IV″ was investigated on 563 clinical isolates of 33 human fungal pathogens. […] For species with n≧10, the MIC90 (MIC, minimal inhibitory concentration) is given as ng/ml. For species with n≦10, the MIC range is given as ng/ml. 24 h and 48 h reads are indicated (Table 1).
(§2) The MIC90 was calculated for the indicated species.

[5] = test system: Coccidioides spp.; experiment: microbe, parasite or virus in culture; format: cell-based; settings: Coccidioides, 48 h
[6] = test system: C. krusei; experiment: Susceptibility of clinical isolates (MIC, broth dilution); format: cell-based; settings: Pichia kudriavzevii; C. krusei (n = 27); M27-A3, 24 hrs; read at 50% inhibition (potassium salt, Voriconazole), 100% (Amphotericin), MEC (Caspofungin); read-out: MIC90
Experimental: as §1
(§3) The in vitro efficacy of antifungal compounds is determined in susceptibility assays, which are indicative for the spectrum and potency of a compound. Susceptibilities are reported as minimal inhibitory concentrations (MIC, as ng/ml or μg/ml) required to inhibit growth to a defined degree compared to the drug free control. The MIC90 defines the MIC required to inhibit growth for ≧90% of the strains of a population tested.
as §2

[7] = test system: C. glabrata; experiment: as above; format: cell-based; settings: Nakaseomyces glabratus; C. glabrata (n = 25); M27-A3, 24 hrs; read at 50% inhibition (potassium salt, Voriconazole), 100% (Amphotericin), MEC (Caspofungin); read-out: MIC90
Experimental: as §1, §3, §2

[8] = test system: C. parapsilosis; experiment: as above; format: cell-based; settings: Lodderomyces parapsilosis; C. parapsilosis (n = 37); M27-A3, 24 hrs; read at 50% inhibition (potassium salt, Voriconazole), 100% (Amphotericin), MEC (Caspofungin); read-out: MIC90
Experimental: as §1, §3, §2

[9] = test system: C. lusitaniae; experiment: as above; format: cell-based; settings: Clavispora lusitaniae; C. lusitaniae (n = 24); M27-A3, 24 hrs; read at 50% inhibition (potassium salt, Voriconazole), 100% (Amphotericin), MEC (Caspofungin); read-out: MIC90
Experimental: as §1, §3, §2

[10] = test system: C. albicans; experiment: as above; format: cell-based; settings: Candida albicans; C. albicans (n = 20); M27-A3, 24 hrs; read at 50% inhibition (potassium salt, Voriconazole), 100% (Amphotericin), MEC (Caspofungin); read-out: MIC90
Experimental: as §1, §3, §2

[11] = test system: C. dubliniensis; experiment: as above; format: cell-based; settings: Candida dubliniensis; C. dubliniensis (n = 25); M27-A3, 24 hrs; read at 50% inhibition (potassium salt, Voriconazole), 100% (Amphotericin), MEC (Caspofungin); read-out: MIC90
Experimental: as §1, §3, §2

[12] = test system: C. tropicalis; experiment: as above; format: cell-based; settings: Candida tropicalis; C. tropicalis (n = 35); M27-A3, 24 hrs; read at 50% inhibition (potassium salt, Voriconazole), 100% (Amphotericin), MEC (Caspofungin); read-out: MIC90
Experimental: as §1, §3, §2

[13] = test system: A. terreus; experiment: Susceptibility of clinical Aspergillus isolates (MIC); format: cell-based; settings: Aspergillus terreus; A. terreus (n = 5); CLSI M38-A2; 50% growth inhibition; 24 h; read-out: MIC50
Experimental: as §1
(§4) Susceptibilities were determined according to the CLSI reference method M38-A2.

[14] = test system: A. versicolor; experiment: as above; format: cell-based; settings: Aspergillus versicolor; A. versicolor (n = 3); CLSI M38-A2; 50% growth inhibition; 24 h; read-out: MIC50
Experimental: as §1, §4

[15] = test system: A. nidulans; experiment: as above; format: cell-based; settings: A. nidulans (n = 3), CLSI M38-A2, 50% growth inhibition, 24 h, read-out: MIC50
Experimental: as §1, §4

[16] = test system: A. flavus; experiment: as above; format: cell-based; settings: Aspergillus flavus; A. flavus (n = 2); CLSI M38-A2; 50% growth inhibition; 24 h; read-out: MIC50
Experimental: as §1, §4

[17] = test system: A. niger; experiment: as above; format: cell-based; settings: A. niger (n = 6), CLSI M38-A2, 50% growth inhibition, 24 h, read-out: MIC50
Experimental: as §1, §4

[18] = test system: A. fumigatus; experiment: as above; format: cell-based; settings: Aspergillus fumigatus; A. fumigatus (n = 20); CLSI M38-A2; 50% growth inhibition; 24 h; read-out: MIC50
Experimental: as §1, §4

[19] = test system: C. albicans; experiment: Fatty acid competition (antagonism) in 96-well plates; settings: 48 h
[20] = test system: H. capsulatum; experiment: microbe, parasite or virus in culture; format: cell-based; settings: Histoplasma capsulatum, 120 h

C[C@@H]1[C@H](O)[C@@H](C)/C=C/C=C/C=C/C=C/C=C/C=C/C=C/[C@H](O[C@@H]2O[C@H](C)[C@@H](O)[C@H](N)[C@@H]2O)C[C@@H]2O[C@](O)(C[C@@H](O)C[C@@H](O)[C@H](O)CC[C@@H](O)C[C@@H](O)CC(=O)O[C@H]1C)C[C@H](O)[C@H]2C(=O)O [Amphotericin B]
Fungicidal Concentration [1]: 800 ng/mL | MIC90 ([1]; 24 h, read-out: MIC90 24 h): 0.2 µg/mL (≈ 0.216 µM) | MIC90 ([1]; 48 h, read-out: MIC90 48 h): 0.8 µg/mL (≈ 0.866 µM) | MIC90 [2]: 0.25 µg/mL (≈ 0.271 µM) | MIC90 [3]: 0.5 µg/mL (≈ 0.541 µM) | MIC90 [4]: 2 µg/mL (≈ 2.16 µM) | MIC90 [5]: 0.5 µg/mL (≈ 0.541 µM) | MIC90 [6]: 4 µg/mL | MIC90 [7]: 2 µg/mL | MIC90 [8]: 0.5 µg/mL | MIC90 [9]: 1 µg/mL | MIC90 [10]: 0.5 µg/mL | MIC90 [11]: 1 µg/mL | MIC90 [12]: 1 µg/mL | MIC50 [13]: 2 µg/mL (≈ 2.16 µM) | MIC50 [14]: 2 µg/mL (≈ 2.16 µM) | MIC50 [15]: 2 µg/mL (≈ 2.16 µM) | MIC50 [16]: 2 µg/mL (≈ 2.16 µM) | MIC50 [17]: 1 µg/mL (≈ 1.08 µM) | MIC50 [18]: 0.5 µg/mL (≈ 0.541 µM) | effect of oleic acid / stearic acid on susceptibility [19]: oleic acid did not decrease the susceptibility | MIC90 [20]: 0.125 µg/mL (≈ 0.135 µM)

From patent US8722910B2, “Diyne compositions” (Evolva AG, priority 2009, dated 2014)
